Like-named read-outs stand apart in the source and are kept apart here.

The target in experiment [1] is T1, BCL6 BTB (Homo sapiens, UniProt P41182).
T1 construct: made in house
On the set-up: method as in PMID 36329085. To be noted: SPR; read-out: Kd value from SPR assay (printed in the Ki column, footnote a); cited from earlier work. A general note: Surface plasmon resonance follows binding to a sensor surface in real time, without labels.

In experiment [2] the target is T1, BCL6 BTB. In words: R2KD ligand-observed 1H NMR assay (Kd from transverse relaxation rate R2). The format is binding. The method, then:
(§1) Four aqueous stock solutions were prepared in Eppendorf Safe-Lock tubes (Cat no. 0030120094) by manual pipetting: (1) ligand aqueous stock solution was prepared by adding 50 mM ligand DMSO-d6 solution to aqueous buffer; (2) dimethyl sulfoxide (DMSO) aqueous stock solution was prepared by adding the same volume of DMSO-d6 as ligand DMSO-d6 solution to aqueous buffer; (3) protein aqueous stock solution was prepared by adding protein solution to aqueous buffer; and (4) aqueous solution was the buffer used in the assay.
Samples were prepared on a Bruker SamplePro-Tube liquid handler by mixing different volume of the four aqueous stocks in 96-well microplates (Greiner 650201) and then transferred to 3 mm NMR tubes (Figure 2). 10 samples were prepared: samples 1–8 containing increasing ligand concentration (maintaining constant protein concentration); sample 9 and 10 containing only ligands at two different concentrations (protein absent). These two samples served as control samples to obtain the R2 values of free ligand. The final percentage of DMSO-d6 in all samples were identical to minimize possible impacts of DMSO-d6.
The R2 values of four aromatic ^1H-NMR signals (Figure 3B) were experimentally determined (Figure 3C) and (R2,obs – R2F) * LT values were calculated using Excel and used as y-axis values in Prism, while ligand concentrations were plotted as the x-axis values (Figure 3D). All four NMR peaks were used to fit a global Kd with non-linear regression using a customized equation (see Experimental Section), while α values were fitted as an individual parameter for each peak (Figure 3E) as α values differ depending on the individual proton’s environment. While it was possible to fit Kd values using individual NMR peaks and then average the values (Figure 3F), we found using a global fitting algorithm increased robustness of curve fitting and better accommodated outliers in the data. The goodness of fit was judged by 95% confidence interval (CI) (profile likelihood) values and R squared value. The global Kd obtained here is close to the Ki value (54 vs 50 μM) although from our accuracy study, the differences can be larger (see section “Assay Accuracy”).
NMR data were collected at 298 K on a Bruker AVANCE NEO 600 MHz spectrometer, equipped with 5 mm TCI CryoProbe using Bruker Topspin 4.0. The T2 relaxation experiment was acquired using pulse program CPMG with 3-9-19 pulse sequence with gradients incorporated to suppress the water signal.[22] Extra water suppression was achieved by adding presaturation during D1. The spin-echo period (delay-180°-delay) was set to 1 msec (d20 is 500 μs), and the relaxation delay (d1) was set to 10 s. The pseudo-2D experiment contained nine slices with spin-echo period repeated the following times: 4, 20, 100, 200, 300, 500, 700, 1000, and 2000. The T2 relaxation experiment was processed using MestReNova 14.1, and Data Analysis Module of MestReNova was used to obtain integrals of individual ^1H-NMR signals, which were used to calculate R2 with equation I = I0exp (−tR2).
Nonlinear regression analysis was carried out using GraphPad Prism 9.2.0. Equation 12 was defined in user-defined equations as: Y = 0.5α*((X + Kd + P) −sqrt((sqr(X + Kd + P)) – 4*P*X)) where Y was calculated from eq 13 and X is the total ligand concentration. Three parameters: P, α, and Kd were in the equation with the initial value set at 1. In the default constraints setting, P was “constant equal to” the total protein concentration, Kd was “shared value for all data sets”, and α was “must be greater than […]”. CIs of parameters was calculated at 95% level using Asymmetrical (Profile-likelihood) CI.

The target in a further experiment is BCL6 BTB domain. Also on record: method as in PMID 35657291. To be noted: known Ki from TR-FRET binding assay; cited from earlier work. For orientation: Time-resolved FRET reads energy transfer from a long-lived donor to a nearby acceptor.
The target of experiment [3] is T2, ERAP1 (Homo sapiens, UniProt Q9NZ08).
T2 construct: made in house
T2 sequence (Q9NZ08 whole entry, species assumed): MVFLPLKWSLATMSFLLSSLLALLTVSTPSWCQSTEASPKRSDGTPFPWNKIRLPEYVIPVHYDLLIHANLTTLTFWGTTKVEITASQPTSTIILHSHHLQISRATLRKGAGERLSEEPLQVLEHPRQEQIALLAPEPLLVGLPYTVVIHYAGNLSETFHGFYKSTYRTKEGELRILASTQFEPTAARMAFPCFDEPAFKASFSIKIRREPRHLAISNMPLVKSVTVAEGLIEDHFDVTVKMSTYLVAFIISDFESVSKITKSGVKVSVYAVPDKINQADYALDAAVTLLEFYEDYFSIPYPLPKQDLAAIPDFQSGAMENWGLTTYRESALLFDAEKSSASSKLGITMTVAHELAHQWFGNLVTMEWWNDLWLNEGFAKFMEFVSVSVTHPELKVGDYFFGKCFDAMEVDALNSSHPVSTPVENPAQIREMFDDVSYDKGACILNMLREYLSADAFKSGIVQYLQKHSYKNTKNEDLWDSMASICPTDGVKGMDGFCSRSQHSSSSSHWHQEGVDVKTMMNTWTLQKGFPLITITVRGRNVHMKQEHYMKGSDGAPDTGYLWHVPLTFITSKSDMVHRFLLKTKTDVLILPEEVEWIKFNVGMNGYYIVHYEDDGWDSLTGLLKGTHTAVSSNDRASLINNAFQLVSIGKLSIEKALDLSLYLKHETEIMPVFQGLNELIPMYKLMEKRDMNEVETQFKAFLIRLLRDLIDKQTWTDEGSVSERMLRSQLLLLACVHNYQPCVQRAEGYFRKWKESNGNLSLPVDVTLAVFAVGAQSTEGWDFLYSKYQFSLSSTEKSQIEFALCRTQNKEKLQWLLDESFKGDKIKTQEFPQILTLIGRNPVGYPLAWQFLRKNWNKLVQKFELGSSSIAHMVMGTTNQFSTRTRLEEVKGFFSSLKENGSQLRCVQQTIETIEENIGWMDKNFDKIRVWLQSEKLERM
On the set-up: method as in PMID 31841350. To be noted: known Ki from biochemical binding assay; cited from earlier work.

The target in experiment [4] is T2, ERAP1. In words: R2KD ligand-observed 1H NMR assay (Kd from transverse relaxation rate R2). It is filed as binding. To be noted: repeated three times (average). The method, then:
as §1
Samples were prepared on a Bruker SamplePro-Tube liquid handler by mixing different volume of the four aqueous stocks in 96-well microplates (Greiner 650201) and then transferred to 3 mm NMR tubes (Figure 2). 10 samples were prepared: samples 1–8 containing increasing ligand concentration (maintaining constant protein concentration); sample 9 and 10 containing only ligands at two different concentrations (protein absent). These two samples served as control samples to obtain the R2 values of free ligand. […]
Nonlinear regression analysis was carried out using GraphPad Prism 9.2.0. Equation 12 was defined in user-defined equations as: Y = 0.5α*((X + Kd + P) −sqrt((sqr(X + Kd + P)) – 4*P*X)) where Y was calculated from eq 13 and X is the total ligand concentration. […] CIs of parameters was calculated at 95% level using Asymmetrical (Profile-likelihood) CI.

[5] abbreviates: R2KD assay, repeated three times (average), read-out: Kd.

For the compound `Cc1cc(Nc2ccc(F)cc2)n2ncnc2n1` [CCT040036], the Kd at BCL6 BTB [1] was 1500 µM; on BCL6 BTB [2] (R2KD assay upper detection limit example, read-out: largest Kd determined accurately) it was ~1000 µM; on BCL6 BTB [2] (setting [5]), 1050 µM; at BCL6 BTB [2] (single experiment, four peaks, global Kd fitting, unit inferred, read-out: Kd, global (shared) fit), 905 µM.

A word on the Ki: it is the equilibrium dissociation constant of an inhibitor or competing ligand from its target. As for `Cc1nccc(Nc2cnn(CCO)c2)c1C#N` [CCT365133], the Ki at BCL6 BTB domain is 50 µM. Further, the Kd worked out at 61 µM on BCL6 BTB [2] (5 μM BCL6, average of Peaks 1-4, unit inferred, read-out: Kd, average of individual peak fits); 55 µM at BCL6 BTB [2] (5 μM BCL6, individual peak fit, unit inferred, read-out: Kd fitted using individual peak, Peak 1); 53 µM at BCL6 BTB [2] (5 μM BCL6, individual peak fit, unit inferred, read-out: Kd fitted using individual peak, Peak 2); 78 µM at BCL6 BTB [2] (5 μM BCL6, individual peak fit, unit inferred, read-out: Kd fitted using individual peak, Peak 3); 56 µM on BCL6 BTB [2] (5 μM BCL6, individual peak fit, unit inferred, read-out: Kd fitted using individual peak, Peak 4); 70 µM on BCL6 BTB [2] (5 μM protein, peak 3, read-out: Kd at 5 μM protein). The Kd at BCL6 BTB [2] (25 μM protein, peak 3, read-out: Kd at 25 μM protein) is 58 µM; at BCL6 BTB [2] (35 μM protein, peak 3, read-out: Kd at 35 μM protein), 71 µM; on BCL6 BTB [2] (setting [5]), 51 µM; at BCL6 BTB [2] (ligand concentration increasing to 500 μM, no solubility limit, read-out: Kd, data set B), 68 µM; at BCL6 BTB [2] (simplified graphical presentation, unit inferred, read-out: KD, curve fitting using calculated bound ligand concentration [PL]) it was 57 µM; at BCL6 BTB [2] (single experiment, 5 μM BCL6, ligand 50-500 μM, four aromatic peaks, global Kd fitting, read-out: Kd, global (shared) fit) it was 54 µM. At BCL6 BTB [2] (limited solubility mimic versus full concentration series), the “Kd of data set A relative to data set B” value is reported as “around 10 fold”.

Consider `CC[C@H](O)Cn1c(=O)n(C)c2ccc(Nc3ccnc(Cl)c3C#N)cc21` [CCT367090], for which the Ki at BCL6 BTB domain is 4 µM. In addition, the Kd on BCL6 BTB [2] (setting [5]) is 7 µM.

Regarding `O=C(O)c1cccc(S(=O)(=O)Nc2ccccc2N2CCCCC2)c1` [CCT369304], the Ki on ERAP1 [3] is 33 µM. This compound also gave a Kd at ERAP1 [4] of 196 µM.

These data come from publication PMC10424183, “Determination of Ligand-Binding Affinity (Kd) Using Transverse Relaxation Rate (R2) in the Ligand-Observed ^1H NMR Experiment and Applications to Fragment-Based Drug Discovery” (Journal of Medicinal Chemistry, 2023).
